Assay results published in ChEMBL document CHEMBL6096721, “Discovery of Selenium-Containing Derivatives as Potent and Orally Bioavailable GLP-1R Agonists” (J Med Chem, 2025).
Activity calls are given as the source filed them. The rule behind the calls is not given here.

Legend:
[1] = molecular target: T1, Glucagon-like peptide 1 receptor (Homo sapiens, UniProt P43220); assay: Binding affinity to human GLP-1R assessed as association rate constant by SPR analysis; settings: filed as agonist
Mus musculus [2] = assay: Appetite suppressing activity in human GLP-1R knockin male mouse model assessed as reduction in food intake at 30 mg/kg, sc measured at 12 to 24 hrs (light cycle); type: functional, organism-based; settings: time 12-24 hrs
Mus musculus [3] = assay: Antidiabetic activity in human GLP-1R knockin male mouse model assessed as reduction in blood glucose level at 2 mg/kg, IG preadministered with compound for 1 hrs followed by first dose of glucose administration for 3 hrs and measured after 300 mins of second glucose administration by oral glucose tolerance test; type: functional, organism-based; settings: time 540.0 min
Mus musculus [4] = assay: Antidiabetic activity in human GLP-1R knockin male mouse model assessed as reduction in blood glucose level at 2 mg/kg, IG preadministered with compound for 1 hrs followed by glucose administration for 3 hrs by oral glucose tolerance test; type: functional, organism-based; settings: time 4.0 hrs
Mus musculus [5] = assay: Appetite suppressing activity in human GLP-1R knockin male mouse model assessed as reduction in food intake at 30 mg/kg, sc measured after 2.5 to 12 hrs; type: functional, organism-based; settings: time 2.5-12 hrs
[6] = MRT (0 to t) in male ICR mouse at 10 mg/kg, po measured after 24 hrs by LC-MS/MS analysis; type: ADME, organism-based; settings: in vivo
[7] = Clearance in male ICR mouse at 2 mg/kg, iv measured after 24 hrs by LC-MS/MS analysis; type: ADME, organism-based; settings: in vivo
[8] = Oral bioavailability in male ICR mouse at 10 mg/kg measured after 24 hrs by LC-MS/MS analysis; type: ADME, organism-based; settings: in vivo
[9] = molecular target: T1, Glucagon-like peptide 1 receptor; assay: Partial agonist activity at LgBit-tagged GLP-1R (unknown origin) transfected in HEK293 cells co-transfected with Smbit-tagged beta-arrestin-1 assessed as beta-arrestin recruitment by measuring maximal efficacy incubated for 5 mins by envision microplate reader analysis relative to control; type: functional, cell-based
[10] = Apparent volume of distribution in male ICR mouse at 2 mg/kg, iv measured after 24 hrs by LC-MS/MS analysis; type: ADME, organism-based; settings: in vivo, read-out: Vz
[11] = Cmax in male ICR mouse at 2 mg/kg, iv measured after 24 hrs by LC-MS/MS analysis; type: ADME, organism-based; settings: in vivo
[12] = Half-life in male ICR mouse at 2 mg/kg, iv measured after 24 hrs by LC-MS/MS analysis; type: ADME, organism-based; settings: in vivo
[13] = Tmax in male ICR mouse at 10 mg/kg, po measured after 24 hrs by LC-MS/MS analysis; type: ADME, organism-based; settings: in vivo
[14] = MRT (0 to t) in male ICR mouse at 2 mg/kg, iv measured after 24 hrs by LC-MS/MS analysis; type: ADME, organism-based; settings: in vivo
[15] = AUC (0 to t) in male ICR mouse at 2 mg/kg, iv measured after 24 hrs by LC-MS/MS analysis; type: ADME, organism-based; settings: in vivo
[16] = molecular target: T1, Glucagon-like peptide 1 receptor; assay: Partial agonist activity at LgBit-tagged GLP-1R (unknown origin) transfected in HEK293 cells co-transfected with Smbit-tagged beta-arrestin-1 assessed as beta-arrestin recruitment incubated for 5 mins by envision microplate reader analysis; type: functional, cell-based
[17] = Cmax in male ICR mouse at 10 mg/kg, po measured after 24 hrs by LC-MS/MS analysis; type: ADME, organism-based; settings: in vivo
[18] = Half-life in male ICR mouse at 10 mg/kg, po measured after 24 hrs by LC-MS/MS analysis; type: ADME, organism-based; settings: in vivo
[19] = AUC (0 to t) in male ICR mouse at 10 mg/kg, po measured after 24 hrs by LC-MS/MS analysis; type: ADME, organism-based; settings: in vivo
[20] = Subacute toxicity in male BALB/c mouse assessed as pathologic change in lung at 150 mg/kg, po administered via gavage for 14 days by H and E staining based analysis; type: organism-based; settings: in vivo, 336 h, time 14 day
[21] = Nephrotoxicity in male BALB/c mouse assessed as decrease in creatinine level at 150 mg/kg, po administered via gavage for 14 days; type: toxicity, organism-based; settings: in vivo, 336 h, time 14 day
[22] = Subacute toxicity in male BALB/c mouse assessed as change in kidney to body weight ratio at 150 mg/kg, po administered via gavage for 14 days; type: organism-based; settings: in vivo, 336 h, time 14 day
[23] = Protein binding in mouse plasma at 2 uM; type: ADME, cell-free; settings: read-out: PPB (converted)
[24] = Toxicity in human GLP-1R knockin male mouse model assessed as effect on AST level at 30 mg/kg, sc measured after 24 hrs; type: organism-based; settings: in vivo
[25] = Subacute toxicity in male BALB/c mouse assessed as pathologic change in liver at 150 mg/kg, po administered via gavage for 14 days by H and E staining based analysis; type: organism-based; settings: in vivo, 336 h, time 14 day
[26] = Subacute toxicity in male BALB/c mouse assessed as change in lung to body weight ratio at 150 mg/kg, po administered via gavage for 14 days; type: organism-based; settings: in vivo, 336 h, time 14 day
[27] = Subacute toxicity in male BALB/c mouse assessed as change in heart to body weight ratio at 150 mg/kg, po administered via gavage for 14 days; type: organism-based; settings: in vivo, 336 h, time 14 day
[28] = Toxicity in human GLP-1R knockin male mouse model assessed as effect on liver pathology at 30 mg/kg, sc measured after 24 hrs by H and E staining based analysis; type: organism-based; settings: in vivo
[29] = Hepatotoxicity in male BALB/c mouse assessed as effect on ALT level at 150 mg/kg, po administered via gavage for 14 days; type: toxicity, organism-based; settings: in vivo, 336 h, time 14 day
[30] = Nephrotoxicity in male BALB/c mouse assessed as effect on blood urea nitrogen level at 150 mg/kg, po administered via gavage for 14 days; type: toxicity, organism-based; settings: in vivo, 336 h, time 14 day
[31] = molecular target: T1, Glucagon-like peptide 1 receptor; assay: Binding affinity to human GLP-1R assessed as dissociation rate constant (Kd) by SPR analysis
[32] = molecular target: T1, Glucagon-like peptide 1 receptor; assay: Binding affinity to human GLP-1R assessed as dissociation constant (KD) by SPR analysis
[33] = Subacute toxicity in male BALB/c mouse assessed as pathologic change in spleen at 150 mg/kg, po administered via gavage for 14 days by H and E staining based analysis; type: organism-based; settings: in vivo, 336 h, time 14 day
[34] = Subacute toxicity in male BALB/c mouse assessed as change in liver to body weight ratio at 150 mg/kg, po administered via gavage for 14 days; type: organism-based; settings: in vivo, 336 h, time 14 day
[35] = Protein binding in mouse plasma at 2 uM assessed as unbound fraction; type: ADME, cell-free
[36] = Toxicity in human GLP-1R knockin male mouse model assessed as effect on spleen pathology at 30 mg/kg, sc measured after 24 hrs by H and E staining based analysis; type: organism-based; settings: in vivo
[37] = Toxicity in human GLP-1R knockin male mouse model assessed as effect on lung pathology at 30 mg/kg, sc measured after 24 hrs by H and E staining based analysis; type: organism-based; settings: in vivo
[38] = Toxicity in human GLP-1R knockin male mouse model assessed as effect on heart pathology at 30 mg/kg, sc measured after 24 hrs by H and E staining based analysis; type: organism-based; settings: in vivo
[39] = Toxicity in human GLP-1R knockin male mouse model assessed as effect on BUN level at 30 mg/kg, sc measured after 24 hrs; type: organism-based; settings: in vivo
[40] = Toxicity in human GLP-1R knockin male mouse model assessed as effect on creatinine level at 30 mg/kg, sc measured after 24 hrs; type: organism-based; settings: in vivo
[41] = Subacute toxicity in male BALB/c mouse assessed as pathologic change in kidney at 150 mg/kg, po administered via gavage for 14 days by H and E staining based analysis; type: organism-based; settings: in vivo, 336 h, time 14 day
[42] = Subacute toxicity in male BALB/c mouse assessed as change in spleen to body weight ratio at 150 mg/kg, po administered via gavage for 14 days; type: organism-based; settings: in vivo, 336 h, time 14 day
[43] = Toxicity in human GLP-1R knockin male mouse model assessed as effect on kidney pathology at 30 mg/kg, sc measured after 24 hrs by H and E staining based analysis; type: organism-based; settings: in vivo
[44] = Subacute toxicity in male BALB/c mouse assessed as mortality at 150 mg/kg, po administered via gavage for 14 days; type: organism-based; settings: in vivo, 336 h, time 14 day
[45] = Subacute toxicity in male BALB/c mouse assessed as body weight loss at 150 mg/kg, po administered via gavage for 14 days; type: organism-based; settings: in vivo, 336 h, time 14 day
[46] = Unbound Cmax in male ICR mouse at 10 mg/kg, po measured after 24 hrs by LC-MS/MS analysis; type: ADME, organism-based; settings: in vivo
[47] = Subacute toxicity in male BALB/c mouse assessed as pathologic change in heart at 150 mg/kg, po administered via gavage for 14 days by H and E staining based analysis; type: organism-based; settings: in vivo, 336 h, time 14 day
Mus musculus [48] = assay: Antidiabetic activity in human GLP-1R knockin male mouse model assessed as reduction in blood glucose level at 2 mg/kg, IG preadministered with compound for 1 hrs followed by first dose of glucose administration for 3 hrs and measured after 270 mins of second glucose administration by oral glucose tolerance test; type: functional, organism-based; settings: time 510.0 min
[49] = Hepatotoxicity in male BALB/c mouse assessed as effect on AST level at 150 mg/kg, po administered via gavage for 14 days; type: toxicity, organism-based; settings: in vivo, 336 h, time 14 day
[50] = Toxicity in human GLP-1R knockin male mouse model assessed as effect on ALT level at 30 mg/kg, sc measured after 24 hrs; type: organism-based; settings: in vivo

T1 sequence (P43220 whole entry): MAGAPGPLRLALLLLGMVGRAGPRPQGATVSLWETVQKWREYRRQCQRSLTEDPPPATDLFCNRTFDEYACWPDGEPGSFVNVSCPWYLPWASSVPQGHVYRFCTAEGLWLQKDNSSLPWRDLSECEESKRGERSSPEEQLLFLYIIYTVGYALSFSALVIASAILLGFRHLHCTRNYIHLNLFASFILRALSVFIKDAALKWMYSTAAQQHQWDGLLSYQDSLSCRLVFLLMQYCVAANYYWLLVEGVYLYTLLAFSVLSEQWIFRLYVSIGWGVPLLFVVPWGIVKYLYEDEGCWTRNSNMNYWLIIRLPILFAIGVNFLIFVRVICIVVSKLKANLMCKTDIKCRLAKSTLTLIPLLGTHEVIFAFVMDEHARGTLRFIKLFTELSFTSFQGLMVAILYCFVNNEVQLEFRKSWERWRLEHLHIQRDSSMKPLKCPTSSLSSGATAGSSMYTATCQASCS

## SEMAGLUTIDE
[1]
  Ka: 7.94 10^5/M.s

## N#Cc1ccc(COc2cccc(C3CCN(Cc4nc5ccc(C(=O)O)cc5n4C[C@@H]4CCO4)CC3)n2)c(F)c1
Mus musculus [2]
  Activity: Active
Mus musculus [3]
  Activity: Active
Mus musculus [4]
  Activity: Active
Mus musculus [5]
  Activity: Active

## COc1cc(C(F)(F)F)ccc1C[Se]c1cccc(N2C=NN(Cc3nc4c(F)cc(C(=O)O)cc4n3C[C@@H]3CCO3)CC2)n1
[6]
  MRT last at 24 h: 3.21 h
[7]
  clearance: 9.05 mL/min/kg
[8]
  bioavailability: 3.2%
[9]
  Emax: 28%
[10]
  Vd: 4.27 L/kg
[11]
  Cmax: 16500 ng/mL
[12]
  half-life: 343 min
[13]
  Tmax: 25.2 min
[14]
  MRT last at 24 h: 23.4 min
[15]
  AUC(0-t) at 24 h: 3720 ng·h/mL
[16]
  EC50: > 200 µM
[17]
  Cmax: 283 ng/mL
[18]
  half-life: 364 min
[19]
  AUC(0-t) at 24 h: 582 ng·h/mL

## COc1cc(C#N)ccc1C[Se]c1cccc(C2CCN(Cc3nc4ccc(C(=O)O)cc4n3C[C@@H]3CCO3)CC2)n1
[20]
  Activity: Non-toxic
Mus musculus [2]
  Activity: Active
[6]
  MRT last at 24 h: 1.91 h
[7]
  clearance: 6.12 mL/min/kg
[21]
  Activity: Toxic
[8]
  bioavailability: 20.4%
[9]
  Emax: 13%
[10]
  Vd: 1.18 L/kg
[22]
  Activity: Non-toxic
[23]
  fraction unbound at 2 µM: 0.02
[24]
  Activity: Non-toxic
[11]
  Cmax: 8110 ng/mL
[25]
  Activity: Non-toxic
[12]
  half-life: 133 min
[26]
  Activity: Non-toxic
[13]
  Tmax: 30 min
[27]
  Activity: Non-toxic
[28]
  Activity: Non-toxic
[29]
  Activity: Non-toxic
[30]
  Activity: Non-toxic
[31]
  Kd: 5.53 10^-3/s
[32]
  Kd: 1000 nM
[33]
  Activity: Non-toxic
[34]
  Activity: Non-toxic
[35]
  fraction unbound at 2 µM: 0.02
[14]
  MRT last at 24 h: 46.2 min
[36]
  Activity: Non-toxic
Mus musculus [4]
  Activity: Active
[37]
  Activity: Non-toxic
[38]
  Activity: Non-toxic
Mus musculus [5]
  Activity: Active
[15]
  AUC(0-t) at 24 h: 5460 ng·h/mL
[39]
  Activity: Non-toxic
[16]
  EC50: > 200 µM
[17]
  Cmax: 4960 ng/mL
[40]
  Activity: Non-toxic
[41]
  Activity: Non-toxic
[42]
  Activity: Non-toxic
[43]
  Activity: Non-toxic
[44]
  Activity: Non-toxic
[18]
  half-life: 308 min
[45]
  Activity: Non-toxic
[46]
  fCmax: 99.21 ng/mL
[47]
  Activity: Non-toxic
Mus musculus [48]
  Activity: Active
[1]
  Ka: 5.52 10^3/M.s
[19]
  AUC(0-t) at 24 h: 5540 ng·h/mL
[49]
  Activity: Non-toxic
[50]
  Activity: Non-toxic
